In patent publication US12629357B2, “Treatment of viral infections, of organ injury, and of related conditions using a HIF prolyl hydroxylase inhibitor or a HIF-alpha stabilizer” (Akebia Therapeutics, Inc., priority 2020, dated 2026):

Test system: hospitalized patients with coronavirus disease 2019 (COVID-19)
Assay: multicenter, randomized, double-blind, placebo-controlled Bayesian adaptive clinical trial for prevention and treatment of ARDS
Type: in vivo, human
Description: This example describes use of 5-(3-chlorophenyl)-3-hydroxypyridine-2-carbonyl] amino} acetic acid (vadadustat) in a multicenter, randomized, double-blind, placebo-controlled Bayesian adaptive clinical for the prevention and treatment of acute respiratory distress syndrome (ARDS) in hospitalized patients with coronavirus disease 2019 (COVID-19).
Inclusion criteria may include any or all of the following: • 1. Men and women ≥18 years of age. • 2. Laboratory-confirmed diagnosis of COVID-19 by detection of SARS-CoV-2 RNA by RT-PCR (reverse transcription polymerase chain reaction) from any specimen respiratory. • 3. Admitted to the hospital. • 4. Within 24 hours of hospital admission. • 5. Oxygen saturation of hemoglobin by pulse oximetry at room air ≤94%. • 6. Participation in any other clinical trial for the treatment for COVID-19 is not allowed. • 7. Understands the procedures and requirements of treatment and provides written informed consent and authorization for protected health information disclosure.
• 1. Males with hemoglobin >17.5 g/dL or females >15.5 g/dL. • 2. Hypersensitivity to vadadustat or any of its excipients. • 3. Placed on mechanical ventilation before randomization. • 4. Hemoglobin above the gender specific upper limit of normal (ULN) at randomization. • 5. Aspartate aminotransferase (AST), alanine aminotransferase (ALT), or total bilirubin >2.0×ULN at randomization. • 6. Patients who have erythrocytosis or polycethemia vera. • 7. Patients receiving any of the following medications: sulfasalazine or other BCRP substrates, probenecid or other UGT and OAT1/3 inhibitors. • 8. Women who are pregnant or breastfeeding, or positive pregnancy test before randomization. • 9. Patients on maintenance dialysis. • 10. Patients who have received a solid organ transplant. • 11. Patients who are prisoners.
Following screening, patients are randomized in a 1:1 ratio to either vadadustat 900 mg or placebo. Randomination is stratified by site, and MSOFA score at baseline (<4 and ≥4).
A subject may receive vadadustat (e.g., 900 mg vadadustat as 6 tablets once daily) for 14 days and without regard for meals at approximately the same time each day. Tablets can be crushed using a pill crusher and administered to an intubated patient through a nasogastric tube.
For example, the efficacy of vadadustat (e.g., 900 mg per day) for the prevention and treatment of ARDS among COVID-19 patients may be measured by ≥1 point deterioration on the NIAID ordinal scale for clinical improvement at day seven or day 14 of treatment.
Efficacy may also be assessed according to any of the following (including any combination thereof): • 1. The proportion of patients at day 14 who are dead (8) or hospitalized, on invasive mechanical ventilation or ECMO (7) or hospitalized, on non-invasive ventilation or high flow oxygen devices (6) on the NIAID-OS. • 2. Proportions of patients with a score of 0 at 14 days on the MSOFA (Modified Sequential Organ Failure Assessment) scale:
• 3. Average MSOFA scores at day 7 and day 14. • 4. Proportion of patients who develop ARDS or experienced increased ARDS severity from baseline based on the Berlin scale. • 5. Ventilator-free survival at day 7 and day 14. • 6. Overall survival at day 7 and day 14. • 7. Proportion of patients with hypotension (MAP (Mean Arterial Pressure)<70 mm Hg or requirement for inotropes or vasopressors to maintain blood pressure) at day 7 and day 14. • 8. Proportion of patients with acute kidney injury at day 7 and day 14. • 9. Time to hospital discharge.

[1] = vadadustat 900 mg once daily for 14 days compared to placebo, day 7 and day 14

O=C(O)CNC(=O)c1ncc(-c2cccc(Cl)c2)cc1O [vadadustat, {[5-(3-chlorophenyl)-3-hydroxypyridine-2-carbonyl]amino}acetic acid]
proportion of patients who develop ARDS or experienced increased ARDS severity from baseline based on the Berlin scale (vadadustat 900 mg once daily for 14 days compared to placebo): a lower or a reduction
proportions of patients with a score of 0 at 14 days on the MSOFA (vadadustat 900 mg once daily for 14 days compared to placebo, 14 days): an increase
average MSOFA scores at day 7 and day 14 [1]: a lower or a reduction
number of overall survival at day 7 and day 14 [1]: a greater or an increase
number of ventilator-free survival at day 7 and day 14 [1]: a greater or an increase
proportion of patients with hypotension (MAP <70 mm Hg or requirement for inotropes or vasopressors to maintain blood pressure) at day 7 and day 14 [1]: a lower or a reduction
time to hospital discharge (vadadustat 900 mg once daily for 14 days versus placebo): a shorter or a reduction
proportion of patients with acute kidney injury at day 7 and day 14 (vadadustat 900 mg once daily for 14 days versus placebo, day 7 and day 14): a lower or a reduction
